Measurements taken from ChEMBL document CHEMBL3352445, “Inhibition of activated STAT5 in Bcr/Abl expressing leukemia cells with new pimozide derivatives” (Bioorg Med Chem Lett, 2014).
The source made the active and inactive calls. The rule behind the calls is not given here.

Tests used:
[1] = test system: K562; test: Cytotoxicity against human K562 cells after 48 hrs by trypan blue dye exclusion test; format: functional, cell-based; details: K562, 48 h
[2] = test system: K562; test: Induction of apoptosis in human K562 cells by annexin V/propidium iodide staining-based flow cytometric analysis; format: functional, cell-based
[3] = test system: K562; test: Reduction in pSTAT5 expression level in human K562 cells at 10 uM after 24 hrs by FACScan flow cytometry; format: functional, cell-based
[4] = test system: K562; test: Cell cycle arrest in human K562 cells assessed as accumulation at G1 phase after 24 hrs using propidium iodide staining at 10 uM by flow cytometry (reference value: 39.05%); format: functional
[5] = test system: K562; test: Cell cycle arrest in human K562 cells assessed as accumulation at S phase after 24 hrs using propidium iodide staining at 10 uM by flow cytometry (reference value: 45.94%); format: functional
[6] = test system: K562; test: Cell cycle arrest in human K562 cells assessed as accumulation at G2-M phase after 24 hrs using propidium iodide staining at 10 uM by flow cytometry (reference value: 15.01%); format: functional
[7] = test system: K562; test: Effect on pSTAT5 expression level in human K562 cells at 30 uM after 24 hrs by FACScan flow cytometry; format: functional, cell-based
[8] = test system: K562; test: Cell cycle arrest in human K562 cells assessed as accumulation at G1 phase after 24 hrs using propidium iodide staining at 40 uM by flow cytometry (reference value: 39.05%); format: functional
[9] = test system: K562; test: Cell cycle arrest in human K562 cells assessed as accumulation at S phase after 24 hrs using propidium iodide staining at 40 uM by flow cytometry (reference value: 45.94%); format: functional
[10] = test system: K562; test: Cell cycle arrest in human K562 cells assessed as accumulation at G2-M phase after 24 hrs using propidium iodide staining at 40 uM by flow cytometry (reference value: 15.01%); format: functional
[11] = test system: K562; test: Effect on pSTAT5 expression level in human K562 cells at 20 uM after 24 hrs by FACScan flow cytometry; format: functional, cell-based
[12] = test system: K562; test: Cell cycle arrest in human K562 cells assessed as accumulation at G1 phase after 24 hrs using propidium iodide staining at 30 uM by flow cytometry (reference value: 39.05%); format: functional
[13] = test system: K562; test: Cell cycle arrest in human K562 cells assessed as accumulation at S phase after 24 hrs using propidium iodide staining at 30 uM by flow cytometry (reference value: 45.94%); format: functional
[14] = test system: K562; test: Cell cycle arrest in human K562 cells assessed as accumulation at G2-M phase after 24 hrs using propidium iodide staining at 30 uM by flow cytometry (reference value: 15.01%); format: functional
[15] = test system: K562; test: Induction of pSTAT5 expression level in human K562 cells at 10 uM after 24 hrs by FACScan flow cytometry; format: functional, cell-based
[16] = test system: K562; test: Induction of pSTAT5 expression level in human K562 cells at 15 uM after 24 hrs by FACScan flow cytometry; format: functional, cell-based
[17] = test system: K562; test: Cell cycle arrest in human K562 cells assessed as accumulation at G1 phase after 24 hrs using propidium iodide staining at 5 uM by flow cytometry (reference value: 39.05%); format: functional
[18] = test system: K562; test: Cell cycle arrest in human K562 cells assessed as accumulation at S phase after 24 hrs using propidium iodide staining at 5 uM by flow cytometry (reference value: 45.94%); format: functional
[19] = test system: K562; test: Cell cycle arrest in human K562 cells assessed as accumulation at G2-M phase after 24 hrs using propidium iodide staining at 5 uM by flow cytometry (reference value: 15.01%); format: functional
[20] = test system: K562; test: Ratio of Pimozide IC50 to compound IC50 for human K562 cells by trypan blue dye exclusion test; format: functional
[21] = test system: K562; test: Ratio of Pimozide AC50 to compound AC50 for human K562 cells by annexin V/propidium iodide staining-based flow cytometric analysis; format: functional
[22] = test system: K562; test: Ratio of Pimozide to compound for pSTAT5 expression level in human K562 cells; format: functional
[23] = test system: K562; test: Effect on pSTAT5 expression level in human K562 cells at 10 uM after 24 hrs by FACScan flow cytometry; format: functional, cell-based
[24] = test system: K562; test: Cell cycle arrest in human K562 cells assessed as accumulation at G1 phase after 24 hrs using propidium iodide staining at 7 uM by flow cytometry (reference value: 39.05%); format: functional
[25] = test system: K562; test: Cell cycle arrest in human K562 cells assessed as accumulation at S phase after 24 hrs using propidium iodide staining at 7 uM by flow cytometry (reference value: 45.94%); format: functional
[26] = test system: K562; test: Cell cycle arrest in human K562 cells assessed as accumulation at G2-M phase after 24 hrs using propidium iodide staining at 7 uM by flow cytometry (reference value: 15.01%); format: functional
[27] = test system: K562; test: Cell cycle arrest in human K562 cells assessed as accumulation at G1 phase after 24 hrs using propidium iodide staining at 20 uM by flow cytometry (reference value: 39.05%); format: functional
[28] = test system: K562; test: Cell cycle arrest in human K562 cells assessed as accumulation at S phase after 24 hrs using propidium iodide staining at 20 uM by flow cytometry (reference value: 45.94%); format: functional
[29] = test system: K562; test: Cell cycle arrest in human K562 cells assessed as accumulation at G2-M phase after 24 hrs using propidium iodide staining at 20 uM by flow cytometry (reference value: 15.01%); format: functional

For `O=c1[nH]c2ccccc2n1C1CCNCC1`, the IC50 [1] was > 50 µM and the AC50 [2] was > 50 µM.
With `O=C(CCC(c1ccc(F)cc1)c1ccc(F)cc1)N1CCC(n2c(=O)[nH]c3ccccc32)CC1` the IC50 [1] was > 50 µM and the AC50 [2] was > 50 µM.
`O=c1[nH]c2ccccc2n1C1CCN(CCCC(c2ccc(F)cc2)c2ccc(F)cc2)CC1` [PIMOZIDE] was tested, and the IC50 [1] was 5 µM, the AC50 [2] was 10 µM and the Activity [3] was “Dose-dependent effect”. For the same molecule, the Activity [4] was 51.28%, the Activity [5] was 38.41% and the Activity [6] was 10.31%.
With `O=C(Cc1ccc([N+](=O)[O-])cc1)N1CCC(n2c(=O)[nH]c3ccccc32)CC1` the IC50 [1] was 35 µM, the AC50 [2] was > 50 µM and the Activity [7] was “inactive”. For the same molecule, the Activity [8] was 31.72%, the Activity [9] was 62.21% and the Activity [10] was 6.07%.
`O=C(CC=C(c1ccc(F)cc1)c1ccc(F)cc1)N1CCC(n2c(=O)[nH]c3ccccc32)CC1` was tested, and the IC50 [1] was 18 µM, the AC50 [2] was 35 µM and the Activity [11] was “inactive”. The Activity [12] was 47.2%, the Activity [13] was 46.64% and the Activity [14] was 6.16%.
With `COc1ccc(CC(=O)N2CCC(n3c(=O)[nH]c4ccccc43)CC2)cc1` the IC50 [1] was > 50 µM and the AC50 [2] was > 50 µM.
`O=C(Cc1cc2ccccc2[nH]1)N1CCC(n2c(=O)[nH]c3ccccc32)CC1` was tested, and the IC50 [1] was > 50 µM and the AC50 [2] was > 50 µM.
With `O=C(CI)N1CCC(n2c(=O)[nH]c3ccccc32)CC1` the IC50 [1] was 1.8 µM, the AC50 [2] was 5 µM and the Activity [15] was “Active”. For the same molecule, the Activity [16] was “Active”, the Activity [17] was 46.96% and the Activity [18] was 39.06%. The Activity [19] was 13.98%, the “Ratio IC50” value [20] was 2.7 and the “Ratio IC50” value [21] was 2. For the same molecule, the “Ratio IC50” value [22] was 1.49.
In the case of `O=C(CCl)N1CCC(n2c(=O)[nH]c3ccccc32)CC1`, the IC50 [1] is reported as 7.3 µM, the AC50 [2] is reported as 14 µM and the Activity [23] is reported as “inactive”. For the same molecule, the Activity [4] was 33.67%, the Activity [5] was 60.23% and the Activity [6] was 6.1%.
With `CN1CCC(n2c(=O)[nH]c3ccccc32)CC1` the IC50 [1] was > 50 µM and the AC50 [2] was > 50 µM.
`C=CC(=O)N1CCC(n2c(=O)[nH]c3ccccc32)CC1` was tested, and the IC50 [1] was > 50 µM and the AC50 [2] was > 50 µM.
For `CC(=O)N1CCC(n2c(=O)[nH]c3ccccc32)CC1`, the IC50 [1] was > 50 µM and the AC50 [2] was > 50 µM.
`O=C(CBr)N1CCC(n2c(=O)[nH]c3ccccc32)CC1` was tested, and the IC50 [1] was 2.4 µM, the AC50 [2] was 4.8 µM and the Activity [15] was “Active”. The Activity [16] was “Active”, the Activity [24] was 47.55% and the Activity [25] was 43.23%. The Activity [26] was 9.22%.
`O=C(Cc1ccccc1)N1CCC(n2c(=O)[nH]c3ccccc32)CC1` was tested, and the IC50 [1] was > 50 µM and the AC50 [2] was > 50 µM.
`O=C(CCC(c1ccccc1)c1ccccc1)N1CCC(n2c(=O)[nH]c3ccccc32)CC1` was tested, and the IC50 [1] was 14 µM, the AC50 [2] was 19 µM and the Activity [11] was “inactive”. It also gave an Activity [12] of 48.02%, an Activity [13] of 31.57% and an Activity [14] of 20.41%.
For `O=C(CC=C(c1ccccc1)c1ccccc1)N1CCC(n2c(=O)[nH]c3ccccc32)CC1`, the IC50 [1] was 13 µM, the AC50 [2] was 18 µM and the Activity [11] was “inactive”. For the same molecule, the Activity [27] was 34.1%, the Activity [28] was 58.57% and the Activity [29] was 7.33%.
In the case of `N#CCC(=O)N1CCC(n2c(=O)[nH]c3ccccc32)CC1`, the IC50 [1] is reported as > 50 µM and the AC50 [2] is reported as > 50 µM.
